According to ChEMBL document CHEMBL5244272 (Eur J Med Chem, 2021):

Tests used:
Format in all cases: functional, organism-based
Plasmodium falciparum [1] = test: Antimalarial activity against Plasmodium falciparum W2
Plasmodium falciparum [2] = test: Antimalarial activity against Plasmodium falciparum D6
Plasmodium falciparum [3] = test: Antimalarial activity against Plasmodium falciparum 3D7
Plasmodium falciparum [4] = test: Antimalarial activity against Plasmodium falciparum K1; conditions: for EC50: read-out: EC50
Plasmodium falciparum [5] = test: Antimalarial activity against Plasmodium falciparum NF54
Plasmodium falciparum [6] = test: Antimalarial activity against Plasmodium falciparum D10

With `COC(=O)CC(C)CO[C@H]1O[C@@H]2O[C@]3(C)CC[C@H]4[C@H](C)CC[C@@H]([C@H]1C)[C@@]24OO3` (some centres undefined) as the compound, how does the IC50 (Plasmodium falciparum [1]) read?
Its IC50 is 0.48 ng/mL.

And the IC50 (Plasmodium falciparum [2])?
Its IC50 is 1.91 ng/mL.

For `c1cc(C2CCC3(CC2)OOC2(OO3)C3CC4CC(C3)CC2C4)ccc1OCCNC1CCOCC1` (centres undefined), which IC50 (Plasmodium falciparum [3]) is on record?
The IC50 was 0.5 nM.

Which results are given for `C[C@@H]1CC[C@H]2[C@@H](C)C(=O)N(S(=O)(=O)c3ccc(C(F)(F)F)cc3)[C@@H]3O[C@]4(C)CC[C@@H]1[C@@]23OO4`?
IC50 (Plasmodium falciparum [1]): 2.39 nM; IC50 (Plasmodium falciparum [4]): 3.15 nM; IC50 (Plasmodium falciparum [5]): 2.04 nM

Which IC50 (Plasmodium falciparum [3]) does the source give for `CCCCCCCCS(=O)(=O)N1C(=O)[C@H](C)[C@@H]2CC[C@@H](C)[C@@H]3CC[C@]4(C)OO[C@]32[C@H]1O4` here?
The IC50 was 2.1 ng/mL.

What about the IC50 (Plasmodium falciparum [4]) of the same compound?
Its IC50 is 1.1 ng/mL.

For `CCN(CC)Cc1ccc(C(C)O[C@H]2O[C@@H]3O[C@]4(C)CC[C@H]5[C@H](C)CC[C@@H]([C@H]2C)[C@@]35OO4)cc1O` (some centres undefined), which IC50 (Plasmodium falciparum [4]) is on record?
Its IC50 is 0.18 ng/mL.

What about the IC50 (Plasmodium falciparum [5]) of the same compound?
The IC50 was 0.36 ng/mL.

Which results are given for `CCCC[C@H]1O[C@@H]2O[C@]3(C)CC[C@H]4[C@H](C)CC[C@@H]([C@H]1C)[C@@]24OO3`?
IC50 (Plasmodium falciparum [1]): 0.16 ng/mL; IC50 (Plasmodium falciparum [2]): 0.41 ng/mL

`CCCCCCCC[C@H]1CCC2C3CC[C@H]4C[C@]5(CC[C@]4(C)C3CC[C@@]21C)OO[C@]1(CC[C@@H]2CCC3C4CC[C@H](CCCCCCCC)[C@@]4(C)CCC3[C@@]2(C)C1)OO5` (some centres undefined) was tested. Which IC50 (Plasmodium falciparum [2]) did it give?
Its IC50 is 155 nM.

`C[C@@H]1CC[C@H]2[C@@H](C)C(=O)N(C(=O)c3cccc([N+](=O)[O-])c3)[C@@H]3O[C@]4(C)CC[C@@H]1[C@@]23OO4` was tested. Which IC50 (Plasmodium falciparum [3]) did it give?
Its IC50 is 0.46 ng/mL.

And the IC50 (Plasmodium falciparum [4])?
The IC50 was 0.6 ng/mL.

Which IC50 (Plasmodium falciparum [1]) does the source give for `C[C@@H]1CC[C@H]2[C@@H](CCCc3ccccc3)C(=O)O[C@@H]3O[C@]4(C)CC[C@@H]1[C@]32OO4` here?
The IC50 was 1.35 ng/mL.

What about the IC50 (Plasmodium falciparum [2]) of the same compound?
Its IC50 is 0.9 ng/mL.

With `C[C@H]1[C@H](Nc2ccccc2)O[C@@H]2O[C@]3(C)CC[C@H]4[C@H](C)CC[C@@H]1[C@@]24OO3` as the compound, how does the IC50 (Plasmodium falciparum [1]) read?
Its IC50 is 0.66 ng/mL.

And the IC50 (Plasmodium falciparum [2])?
Its IC50 is 0.66 ng/mL.

How did the EC50 (Plasmodium falciparum [4]) turn out when `C[C@@H]1CC[C@H]2[C@H](C[C@@]3(CCCCCCC[C@]4(C[C@@H]5C(=O)O[C@@H]6O[C@]7(C)CC[C@H]8[C@H](C)CC[C@@H]5[C@@]68OO7)C(=O)O[C@@H]5O[C@]6(C)CC[C@H]7[C@H](C)CC[C@@H]4[C@@]57OO6)C(=O)O[C@@H]4O[C@]5(C)CC[C@H]6[C@H](C)CC[C@@H]3[C@@]46OO5)C(=O)O[C@@H]3O[C@]4(C)CC[C@@H]1[C@]32OO4` was run?
Its EC50 is 5.8 nM.

For `CC1(C)OOC2(OCCCC34CC5CC(CC(C5)C3)C4)CCCC1C2` (centres undefined), which IC50 (Plasmodium falciparum [1]) is on record?
The IC50 was 160 nM.

What about the IC50 (Plasmodium falciparum [6]) of the same compound?
The IC50 was 240 nM.

With `CC1(C)OOC2(OCCc3ccccc3)CCCC1C2` (centres undefined) as the compound, how does the IC50 (Plasmodium falciparum [1]) read?
The IC50 was 250 nM.

What about the IC50 (Plasmodium falciparum [6]) of the same compound?
Its IC50 is 670 nM.

`C[C@@H]1CC[C@H]2[C@@H](CCCc3cc(F)cc(F)c3)C(=O)O[C@@H]3O[C@]4(C)CC[C@@H]1[C@]32OO4` was tested. Which IC50 (Plasmodium falciparum [1]) did it give?
The IC50 was 6.5 ng/mL.

What about the IC50 (Plasmodium falciparum [2]) of the same compound?
Its IC50 is 0.82 ng/mL.

And the IC50 (Plasmodium falciparum [4])?
Its IC50 is 3.2 ng/mL.

`CS(=O)(=O)N1CCN(CCOc2ccc(C3CCC4(CC3)OOC3(OO4)C4CC5CC(C4)CC3C5)cc2)CC1` (centres undefined) was tested. Which IC50 (Plasmodium falciparum [3]) did it give?
The IC50 was 3.5 nM.

Which IC50 (Plasmodium falciparum [1]) does the source give for `Cc1ccccc1COC12CCCC(C1)C(C)(C)OO2` (centres undefined) here?
Its IC50 is 630 nM.

What about the IC50 (Plasmodium falciparum [6]) of the same compound?
The IC50 was 740 nM.

Which IC50 (Plasmodium falciparum [3]) does the source give for `COC(=O)Nc1nc2cc(C(=O)c3ccccc3)ccc2n1C(=O)O[C@H]1O[C@@H]2O[C@]3(C)CC[C@H]4[C@H](C)CC[C@@H]([C@H]1C)[C@@]24OO3` here?
The IC50 was 6.86 nM.

How did the IC50 (Plasmodium falciparum [2]) turn out when `CCCCNC(=O)CCC(C)[C@H]1CCC2C3C(C[C@H](OC(C)=O)[C@@]21C)[C@@]1(C)CC[C@]2(C[C@@H]1C[C@H]3OC(C)=O)OO[C@@]1(CC[C@]3(C)C4C[C@H](OC(C)=O)[C@@]5(C)C(CC[C@@H]5C(C)CCC(=O)NCCCC)C4[C@H](OC(C)=O)C[C@H]3C1)OO2` (some centres undefined) was run?
Its IC50 is 20.1 nM.

`C[C@H]1[C@@H](OCc2ccc(C(=O)N(CCCNc3ccnc4cc(Cl)ccc34)CC(=O)NC3CCCCC3)cc2)O[C@@H]2O[C@]3(C)CC[C@H]4[C@H](C)CC[C@@H]1[C@@]24OO3` was tested. Which IC50 (Plasmodium falciparum [6]) did it give?
Its IC50 is 35 nM.

What about the IC50 (Plasmodium falciparum [4]) of the same compound?
The IC50 was 21 nM.

For `CC1(C)OOC2(OCCC34CC5CC(CC(C5)C3)C4)CCCC1C2` (centres undefined), which IC50 (Plasmodium falciparum [1]) is on record?
The IC50 was 440 nM.

What about the IC50 (Plasmodium falciparum [6]) of the same compound?
The IC50 was 580 nM.

Which IC50 (Plasmodium falciparum [3]) does the source give for `C[C@@H]1CC[C@H]2[C@@H](C)C(=O)N(S(=O)(=O)c3ccc4ccccc4c3)[C@@H]3O[C@]4(C)CC[C@@H]1[C@@]23OO4` here?
The IC50 was 2.8 ng/mL.

What about the IC50 (Plasmodium falciparum [4]) of the same compound?
The IC50 was 0.2 ng/mL.

How did the IC50 (Plasmodium falciparum [1]) turn out when `C[C@@H]1CCC[C@@H](C)C12OOC1(OO2)[C@@H](C)CCC[C@@H]1C` was run?
The IC50 was over 1000 nM.

What about the IC50 (Plasmodium falciparum [2]) of the same compound?
The IC50 was over 1000 nM.

With `C[C@@H]1CC[C@H]2[C@H](C[C@@]3(CCCCCCCC4C(=O)O[C@@H]5O[C@]6(C)CC[C@H]7[C@H](C)CC[C@@H]4[C@@]57OO6)C(=O)O[C@@H]4O[C@]5(C)CC[C@H]6[C@H](C)CC[C@@H]3[C@@]46OO5)C(=O)O[C@@H]3O[C@]4(C)CC[C@@H]1[C@]32OO4` (some centres undefined) as the compound, how does the EC50 (Plasmodium falciparum [4]) read?
Its EC50 is 3.1 nM.

With `C[C@H]1[C@H](Nc2ccc(I)cc2)O[C@@H]2O[C@]3(C)CC[C@H]4[C@H](C)CC[C@@H]1[C@@]24OO3` as the compound, how does the IC50 (Plasmodium falciparum [1]) read?
Its IC50 is 0.33 ng/mL.

And the IC50 (Plasmodium falciparum [2])?
Its IC50 is 0.33 ng/mL.

For `C[C@H]1[C@H](NS(N)(=O)=O)O[C@@H]2O[C@]3(C)CC[C@H]4[C@H](C)CC[C@@H]1[C@@]24OO3`, which IC50 (Plasmodium falciparum [1]) is on record?
Its IC50 is 2.04 nM.

And the IC50 (Plasmodium falciparum [4])?
Its IC50 is 1.79 nM.

What about the IC50 (Plasmodium falciparum [5]) of the same compound?
Its IC50 is 3.1 nM.

What does the source list for `C[C@@H]1CC[C@H]2[C@@H](C)C(=O)N(C(=O)Cc3ccc([N+](=O)[O-])cc3)[C@@H]3O[C@]4(C)CC[C@@H]1[C@@]23OO4`?
IC50 (Plasmodium falciparum [3]): 0.6 ng/mL; IC50 (Plasmodium falciparum [4]): 0.4 ng/mL

How did the EC50 (Plasmodium falciparum [4]) turn out when `C[C@@H]1CC[C@H]2[C@H](C[C@@]3(CCCCCC[C@]4(C[C@@H]5C(=O)O[C@@H]6O[C@]7(C)CC[C@H]8[C@H](C)CC[C@@H]5[C@@]68OO7)C(=O)O[C@@H]5O[C@]6(C)CC[C@H]7[C@H](C)CC[C@@H]4[C@@]57OO6)C(=O)O[C@@H]4O[C@]5(C)CC[C@H]6[C@H](C)CC[C@@H]3[C@@]46OO5)C(=O)O[C@@H]3O[C@]4(C)CC[C@@H]1[C@]32OO4` was run?
The EC50 was 20 nM.
